Results from the supplement of paper PMC11208160.

Test: recombinant UMI read abundance after kanamycin selection (control-corrected) (log10(CPM+1)); higher = more efficient recombination; extreme values may be limits of the assay; sequences stand for … in AGTGCAGAGAAAATCGGCCAGTTTTCTCTGCCTGCAGTCCGCATGCCGTGGGACCCCTTGGGTTCTAACCTGTTGCCTAGATTTATGCAGCGGACTGCCTTTCTCCCAAAGTGATAAACCGG…AGGTTGGTTTCACT; site = the 11-nt donor
How it was run: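 Under IPTG (0.07 mM) plus kanamycin, or without selection, Escherichia coli carrying a UMI-tagged donor and donor-binding-loop pair library and a target plasmid for the IS621 bridge recombinase were plated in two replicates. Recombinant UMIs were PCR-amplified across the donor–target junction and sequenced. Counts were converted to CPM, averaged over replicates, scaled by control-derived factors and reported as log10(CPM+1).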
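Note: IS621 bridge recombinase in Escherichia coli cells against a fixed T5 target plasmid.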

Row | Sequence | recombinant UMI read abundance (log10)
1 | GGGACCTCATGGACCGGTTTTCCCGGTAATCCGTATTTGTA (site GGGACCTCTTA) | 2.24
2 | GGGACGACATGGACCGGTTTTCCCGGTAATCCGTATTTGCA (site AGGAAGACTTG) | 0
3 | GGGACGACATGGACCGGTTTTCCCGGTAATCCGTATTTGCA (site GGGACGACTTG) | 2.07
4 | GGGAGTCCATGGACCGGTTTTCCCGGTAATCCGTATTTGTT (site CGGAATCCTAA) | 0.00442
5 | GGGAGTCCATGGACCGGTTTTCCCGGTAATCCGTATTTGTT (site GGGAGTCCTAA) | 0.709
6 | GGGAGTTCATGGACCGGTTTTCCCGGTAATCCGTATTTGCA (site GGGAGTTCTTG) | 1.13
7 | GGGATCTCATGGACCGGTTTTCCCGGTAATCCGTATTTGGG (site GGGATCTCTCC) | 1.71
8 | GGGATTTCATGGACCGGTTTTCCCGGTAATCCGTATTTGGG (site GGGATTTCTCC) | 0.679
9 | GGGCACCCATGGACCGGTTTTCCCGGTAATCCGTATTTGTT (site GGACACCCTAA) | 0.0162
10 | GGGCACCCATGGACCGGTTTTCCCGGTAATCCGTATTTGTT (site GGCCACCCTAA) | 0.161
11 | GGGCACCCATGGACCGGTTTTCCCGGTAATCCGTATTTGTT (site GGGCACCCTAA) | 0.325
12 | GGGCACCCATGGACCGGTTTTCCCGGTAATCCGTATTTGTT (site GGTCACCCTAA) | 0.268
13 | GGGCCGGCATGGACCGGTTTTCCCGGTAATCCGTATTTGGC (site AGGCCGGCTGC) | 0
14 | GGGCCGGCATGGACCGGTTTTCCCGGTAATCCGTATTTGGC (site CGGCCGGCTGC) | 0
15 | GGGCCGGCATGGACCGGTTTTCCCGGTAATCCGTATTTGGC (site GGGCCGGCTGC) | 0
16 | GGGCCGGCATGGACCGGTTTTCCCGGTAATCCGTATTTGGC (site TGGCCGGCTGC) | 0
17 | GGGCCTACATGGACCGGTTTTCCCGGTAATCCGTATTTGGG (site GGGCCTACTCC) | 0
18 | GGGCTCACATGGACCGGTTTTCCCGGTAATCCGTATTTGAT (site GAGCTCACTAT) | 0.00773
19 | GGGCTCACATGGACCGGTTTTCCCGGTAATCCGTATTTGAT (site GCGCTCACTAT) | 0.802
20 | GGGCTCACATGGACCGGTTTTCCCGGTAATCCGTATTTGAT (site GGGCTCACTAT) | 1.73
21 | GGGCTCACATGGACCGGTTTTCCCGGTAATCCGTATTTGAT (site GTGCTCACTAT) | 1.11
22 | GGGGAACCATGGACCGGTTTTCCCGGTAATCCGTATTTGAT (site AGGGAACCTAT) | 0
23 | GGGGAACCATGGACCGGTTTTCCCGGTAATCCGTATTTGAT (site CGGGAACCTAT) | 0
24 | GGGGAACCATGGACCGGTTTTCCCGGTAATCCGTATTTGAT (site GGGGAACCTAT) | 0
25 | GGGGAACCATGGACCGGTTTTCCCGGTAATCCGTATTTGAT (site TGGGAACCTAT) | 0

Row | Sequence | recombinant UMI read abundance (log10)
26 | GGGGACTCATGGACCGGTTTTCCCGGTAATCCGTATTTGCA (site GGGGACTCTTG) | 1.89
27 | GGGGAGACATGGACCGGTTTTCCCGGTAATCCGTATTTGCC (site GGGGAGACTGG) | 2.07
28 | GGGGATGCATGGACCGGTTTTCCCGGTAATCCGTATTTGGC (site GGGGATGCTGC) | 0
29 | GGGGCACCATGGACCGGTTTTCCCGGTAATCCGTATTTGTA (site GGGGCACCTTA) | 0
30 | GGGGCACCATGGACCGGTTTTCCCGGTAATCCGTATTTGTA (site GGGGCACCTTC) | 0.0203
31 | GGGGCACCATGGACCGGTTTTCCCGGTAATCCGTATTTGTA (site GGGGCACCTTG) | 0.00274
32 | GGGGCACCATGGACCGGTTTTCCCGGTAATCCGTATTTGTA (site GGGGCACCTTT) | 0.0754
33 | GGGGCAGCATGGACCGGTTTTCCCGGTAATCCGTATTTGCA (site GGGGCAACTTG) | 1.47
34 | GGGGCAGCATGGACCGGTTTTCCCGGTAATCCGTATTTGCA (site GGGGCACCTTG) | 0
35 | GGGGCAGCATGGACCGGTTTTCCCGGTAATCCGTATTTGCA (site GGGGCAGCTTG) | 2.13
36 | GGGGCAGCATGGACCGGTTTTCCCGGTAATCCGTATTTGCA (site GGGGCATCTTG) | 0.336
37 | GGGGCCCCATGGACCGGTTTTCCCGGTAATCCGTATTTGGC (site GGGGCCCCTGC) | 0
38 | GGGGCGCCATGGACCGGTTTTCCCGGTAATCCGTATTTGCA (site GGGGCACCTTG) | 0.0167
39 | GGGGCGCCATGGACCGGTTTTCCCGGTAATCCGTATTTGCA (site GGGGCCCCTTG) | 0
40 | GGGGCGCCATGGACCGGTTTTCCCGGTAATCCGTATTTGCA (site GGGGCGCCTTG) | 0.0101
41 | GGGGCGCCATGGACCGGTTTTCCCGGTAATCCGTATTTGCA (site GGGGCTCCTTG) | 0
42 | GGGGCTCCATGGACCGGTTTTCCCGGTAATCCGTATTTGCA (site GGGGCACCTTG) | 0.0623
43 | GGGGCTCCATGGACCGGTTTTCCCGGTAATCCGTATTTGCA (site GGGGCCCCTTG) | 0.407
44 | GGGGCTCCATGGACCGGTTTTCCCGGTAATCCGTATTTGCA (site GGGGCGCCTTG) | 0.0195
45 | GGGGCTCCATGGACCGGTTTTCCCGGTAATCCGTATTTGCA (site GGGGCTCCTTG) | 1.13
46 | GGGGTAGCATGGACCGGTTTTCCCGGTAATCCGTATTTGTC (site GGGGTAGCTGA) | 2.71
47 | GGGTAATCATGGACCGGTTTTCCCGGTAATCCGTATTTGAT (site GGGTAATCTAT) | 3.04
48 | GGGTACGCATGGACCGGTTTTCCCGGTAATCCGTATTTGTA (site GGGTACGCTTA) | 2.47
49 | GGGTAGACATGGACCGGTTTTCCCGGTAATCCGTATTTGCC (site GGATAGACTGG) | 2.81
50 | GGGTAGACATGGACCGGTTTTCCCGGTAATCCGTATTTGCC (site GGCTAGACTGG) | 0

Row | Sequence | recombinant UMI read abundance (log10)
51 | GGGTAGACATGGACCGGTTTTCCCGGTAATCCGTATTTGCC (site GGGTAGACTGG) | 2.39
52 | GGGTAGACATGGACCGGTTTTCCCGGTAATCCGTATTTGCC (site GGTTAGACTGG) | 0.949
53 | GGTAATTCATGGACCGGTTTTCCCGGTAATCCGTATTTGGT (site GGTAATTCTAC) | 1.18
54 | GGTACATCATGGACCGGTTTTCCCGGTAATCCGTATTTGTT (site GGTACATCTAA) | 0.0632
55 | GGTACATCATGGACCGGTTTTCCCGGTAATCCGTATTTGTT (site GGTACCTCTAA) | 0.00401
56 | GGTACATCATGGACCGGTTTTCCCGGTAATCCGTATTTGTT (site GGTACGTCTAA) | 0.0133
57 | GGTACATCATGGACCGGTTTTCCCGGTAATCCGTATTTGTT (site GGTACTTCTAA) | 0.00584
58 | GGTACGTCATGGACCGGTTTTCCCGGTAATCCGTATTTGGA (site GGTACGTCTTC) | 0.695
59 | GGTACTCCATGGACCGGTTTTCCCGGTAATCCGTATTTGTA (site GGTACTCCTTA) | 0.301
60 | GGTACTGCATGGACCGGTTTTCCCGGTAATCCGTATTTGGA (site GGTACTGCTTC) | 0.135
61 | GGTACTTCATGGACCGGTTTTCCCGGTAATCCGTATTTGTT (site GGTACATCTAA) | 0.0111
62 | GGTACTTCATGGACCGGTTTTCCCGGTAATCCGTATTTGTT (site GGTACCTCTAA) | 0.0128
63 | GGTACTTCATGGACCGGTTTTCCCGGTAATCCGTATTTGTT (site GGTACGTCTAA) | 0.011
64 | GGTACTTCATGGACCGGTTTTCCCGGTAATCCGTATTTGTT (site GGTACTTCTAA) | 0.456
65 | GGTAGGTCATGGACCGGTTTTCCCGGTAATCCGTATTTGTT (site GGTAAGTCTAA) | 0.00393
66 | GGTAGGTCATGGACCGGTTTTCCCGGTAATCCGTATTTGTT (site GGTACGTCTAA) | 0.0163
67 | GGTAGGTCATGGACCGGTTTTCCCGGTAATCCGTATTTGTT (site GGTAGGTCTAA) | 0.00338
68 | GGTAGGTCATGGACCGGTTTTCCCGGTAATCCGTATTTGTT (site GGTATGTCTAA) | 0.0159
69 | GGTAGTGCATGGACCGGTTTTCCCGGTAATCCGTATTTGCC (site GGTAGTGCTGG) | 1.61
70 | GGTATGGCATGGACCGGTTTTCCCGGTAATCCGTATTTGCA (site GGTATGGCTTG) | 1.9
71 | GGTCATCCATGGACCGGTTTTCCCGGTAATCCGTATTTGAA (site GGTCATCCTTT) | 0.0104
72 | GGTCATTCATGGACCGGTTTTCCCGGTAATCCGTATTTGTG (site GGTCATTCTCA) | 1.05
73 | GGTCCAACATGGACCGGTTTTCCCGGTAATCCGTATTTGAA (site GGTCCAACTTA) | 0.0074
74 | GGTCCAACATGGACCGGTTTTCCCGGTAATCCGTATTTGAA (site GGTCCAACTTC) | 0.00549
75 | GGTCCAACATGGACCGGTTTTCCCGGTAATCCGTATTTGAA (site GGTCCAACTTG) | 0
